Experimental data from patent US20220281848A1, “PYRAZOLE-SUBSTITUTED PYRROLIDINONES AS HERBICIDES” (FMC Corporation, priority 2019, published 2022).

Assays:
wheat = experiment: Test D post-emergence, wheat seed treated with a herbicide safener; type: in vivo; conditions: "Cereals" Postemergent
How it was run: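 Seeds treated with herbicide safener; sown in soil; glasshouse, 16 h light, 65% humidity. Sprayed day 1 (pre) or ~day 12 (post). Spray in 0.2% v/v adjuvant. Scored 0–100 damage: 20 DAA pre, 15 d post.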

plants = experiment: Test D post-emergence, other plants of Tables D2 and D4; type: in vivo; conditions: for ALOMY damage rating (100=total damage to plant; 0=no damage to plant) / AVEFA damage rating (100=total damage to plant; 0=no damage to plant) / BEAVA damage rating (100=total damage to plant; 0=no damage to plant) / BROTE damage rating (100=total damage to plant; 0=no damage to plant) / BRSNN damage rating (100=total damage to plant; 0=no damage to plant) / CHEAL damage rating (100=total damage to plant; 0=no damage to plant) / GALAP damage rating (100=total damage to plant; 0=no damage to plant) / HORVW damage rating (100=total damage to plant; 0=no damage to plant) / KCHSC damage rating (100=total damage to plant; 0=no damage to plant) / LOLPE damage rating (100=total damage to plant; 0=no damage to plant) / POAAN damage rating (100=total damage to plant; 0=no damage to plant) / POLCO damage rating (100=total damage to plant; 0=no damage to plant) / SINAR damage rating (100=total damage to plant; 0=no damage to plant) / STEME damage rating (100=total damage to plant; 0=no damage to plant) / VERPE damage rating (100=total damage to plant; 0=no damage to plant): "Cereals" Postemergent, evaluated after 15 d; for damage to plant (100=total damage to plant; 0=no damage to plant), ABUTH / damage to plant (100=total damage to plant; 0=no damage to plant), AMARE / damage to plant (100=total damage to plant; 0=no damage to plant), BIDPI / damage to plant (100=total damage to plant; 0=no damage to plant), BRAPL / damage to plant (100=total damage to plant; 0=no damage to plant), CYPES / damage to plant (100=total damage to plant; 0=no damage to plant), DIGSA / damage to plant (100=total damage to plant; 0=no damage to plant), ECHCG / damage to plant (100=total damage to plant; 0=no damage to plant), ELEIN / damage to plant (100=total damage to plant; 0=no damage to plant), EPHHL / damage to plant (100=total damage to plant; 0=no damage to plant), GLXMA / damage to plant (100=total damage to plant; 0=no damage to plant), IPOHE / damage to plant (100=total damage to plant; 0=no damage to plant), ORYSA / damage to plant (100=total damage to plant; 0=no damage to plant), PANMI / damage to plant (100=total damage to plant; 0=no damage to plant), SETFA / damage to plant (100=total damage to plant; 0=no damage to plant), SORVU: post-emergence
How it was run: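 Damage was rated visually from 0 (none) to 100 (total), at 20 DAA for pre-emergence and 15 d for post-emergence. Plants grew from safener-treated seed in a glasshouse at 24/18° C. or 20/16° C. day/night, 65% humidity, watered twice daily.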

CN1CC(c2cc(C(F)(F)F)n(C)n2)C(C(=O)Nc2ccc(F)cc2C(C)(F)F)C1=O (racemic) [Compound 26]
50: damage to plant (100=total damage to plant; 0=no damage to plant), BRAPL (plants; rate 130, evaluated after 15 d)
30: POAAN damage rating (100=total damage to plant; 0=no damage to plant) (plants; Rates 130)
80: POAAN damage rating (100=total damage to plant; 0=no damage to plant) (plants; Rates 500) | VERPE damage rating (100=total damage to plant; 0=no damage to plant) (plants; Rates 500) | damage to plant (100=total damage to plant; 0=no damage to plant), BRAPL (plants; rate 500, evaluated after 15 d)
40: TRZAW damage rating (100=total damage to plant; 0=no damage to plant) (wheat; Rates 500, evaluated after 15 d) | ALOMY damage rating (100=total damage to plant; 0=no damage to plant) (plants; Rates 500) | HORVW damage rating (100=total damage to plant; 0=no damage to plant) (plants; Rates 500)
0: TRZAW damage rating (100=total damage to plant; 0=no damage to plant) (wheat; Rates 130, evaluated after 15 d) | TRZAW damage rating (100=total damage to plant; 0=no damage to plant) (wheat; Rates 250, evaluated after 15 d) | ALOMY damage rating (100=total damage to plant; 0=no damage to plant) (plants; Rates 130) | ALOMY damage rating (100=total damage to plant; 0=no damage to plant) (plants; Rates 250) | AVEFA damage rating (100=total damage to plant; 0=no damage to plant) (plants; Rates 130) | BEAVA damage rating (100=total damage to plant; 0=no damage to plant) (plants; Rates 130) | BEAVA damage rating (100=total damage to plant; 0=no damage to plant) (plants; Rates 250) | BEAVA damage rating (100=total damage to plant; 0=no damage to plant) (plants; Rates 500) | BROTE damage rating (100=total damage to plant; 0=no damage to plant) (plants; Rates 130) | BROTE damage rating (100=total damage to plant; 0=no damage to plant) (plants; Rates 250) | BROTE damage rating (100=total damage to plant; 0=no damage to plant) (plants; Rates 500) | BRSNN damage rating (100=total damage to plant; 0=no damage to plant) (plants; Rates 130) | BRSNN damage rating (100=total damage to plant; 0=no damage to plant) (plants; Rates 250) | BRSNN damage rating (100=total damage to plant; 0=no damage to plant) (plants; Rates 500) | CHEAL damage rating (100=total damage to plant; 0=no damage to plant) (plants; Rates 130) | CHEAL damage rating (100=total damage to plant; 0=no damage to plant) (plants; Rates 250) | GALAP damage rating (100=total damage to plant; 0=no damage to plant) (plants; Rates 130) | GALAP damage rating (100=total damage to plant; 0=no damage to plant) (plants; Rates 250) | HORVW damage rating (100=total damage to plant; 0=no damage to plant) (plants; Rates 130) | HORVW damage rating (100=total damage to plant; 0=no damage to plant) (plants; Rates 250) | KCHSC damage rating (100=total damage to plant; 0=no damage to plant) (plants; Rates 130) | KCHSC damage rating (100=total damage to plant; 0=no damage to plant) (plants; Rates 250) | KCHSC damage rating (100=total damage to plant; 0=no damage to plant) (plants; Rates 500) | LOLPE damage rating (100=total damage to plant; 0=no damage to plant) (plants; Rates 130) | LOLPE damage rating (100=total damage to plant; 0=no damage to plant) (plants; Rates 250) | POLCO damage rating (100=total damage to plant; 0=no damage to plant) (plants; Rates 130) | POLCO damage rating (100=total damage to plant; 0=no damage to plant) (plants; Rates 250) | POLCO damage rating (100=total damage to plant; 0=no damage to plant) (plants; Rates 500) | SINAR damage rating (100=total damage to plant; 0=no damage to plant) (plants; Rates 130) | SINAR damage rating (100=total damage to plant; 0=no damage to plant) (plants; Rates 250) | STEME damage rating (100=total damage to plant; 0=no damage to plant) (plants; Rates 130) | STEME damage rating (100=total damage to plant; 0=no damage to plant) (plants; Rates 250) | STEME damage rating (100=total damage to plant; 0=no damage to plant) (plants; Rates 500) | VERPE damage rating (100=total damage to plant; 0=no damage to plant) (plants; Rates 130) | VERPE damage rating (100=total damage to plant; 0=no damage to plant) (plants; Rates 250) | damage to plant (100=total damage to plant; 0=no damage to plant), ABUTH (plants; rate 130, evaluated after 15 d) | damage to plant (100=total damage to plant; 0=no damage to plant), ABUTH (plants; rate 250, evaluated after 15 d) | damage to plant (100=total damage to plant; 0=no damage to plant), ABUTH (plants; rate 500, evaluated after 15 d) | damage to plant (100=total damage to plant; 0=no damage to plant), AMARE (plants; rate 130, evaluated after 15 d) | damage to plant (100=total damage to plant; 0=no damage to plant), AMARE (plants; rate 250, evaluated after 15 d) | damage to plant (100=total damage to plant; 0=no damage to plant), AMARE (plants; rate 500, evaluated after 15 d) | damage to plant (100=total damage to plant; 0=no damage to plant), BIDPI (plants; rate 130, evaluated after 15 d) | damage to plant (100=total damage to plant; 0=no damage to plant), BIDPI (plants; rate 250, evaluated after 15 d) | damage to plant (100=total damage to plant; 0=no damage to plant), BIDPI (plants; rate 500, evaluated after 15 d) | damage to plant (100=total damage to plant; 0=no damage to plant), CYPES (plants; rate 130, evaluated after 15 d) | damage to plant (100=total damage to plant; 0=no damage to plant), CYPES (plants; rate 250, evaluated after 15 d) | damage to plant (100=total damage to plant; 0=no damage to plant), CYPES (plants; rate 500, evaluated after 15 d) | damage to plant (100=total damage to plant; 0=no damage to plant), DIGSA (plants; rate 130, evaluated after 15 d) | damage to plant (100=total damage to plant; 0=no damage to plant), ECHCG (plants; rate 130, evaluated after 15 d) | damage to plant (100=total damage to plant; 0=no damage to plant), ECHCG (plants; rate 250, evaluated after 15 d) | damage to plant (100=total damage to plant; 0=no damage to plant), ELEIN (plants; rate 130, evaluated after 15 d) | damage to plant (100=total damage to plant; 0=no damage to plant), ELEIN (plants; rate 250, evaluated after 15 d) | damage to plant (100=total damage to plant; 0=no damage to plant), EPHHL (plants; rate 130, evaluated after 15 d) | damage to plant (100=total damage to plant; 0=no damage to plant), GLXMA (plants; rate 130, evaluated after 15 d) | damage to plant (100=total damage to plant; 0=no damage to plant), GLXMA (plants; rate 250, evaluated after 15 d) | damage to plant (100=total damage to plant; 0=no damage to plant), GLXMA (plants; rate 500, evaluated after 15 d) | damage to plant (100=total damage to plant; 0=no damage to plant), IPOHE (plants; rate 130, evaluated after 15 d) | damage to plant (100=total damage to plant; 0=no damage to plant), IPOHE (plants; rate 250, evaluated after 15 d) | damage to plant (100=total damage to plant; 0=no damage to plant), IPOHE (plants; rate 500, evaluated after 15 d) | damage to plant (100=total damage to plant; 0=no damage to plant), ORYSA (plants; rate 130, evaluated after 15 d) | damage to plant (100=total damage to plant; 0=no damage to plant), ORYSA (plants; rate 250, evaluated after 15 d) | damage to plant (100=total damage to plant; 0=no damage to plant), ORYSA (plants; rate 500, evaluated after 15 d) | damage to plant (100=total damage to plant; 0=no damage to plant), PANMI (plants; rate 130, evaluated after 15 d) | damage to plant (100=total damage to plant; 0=no damage to plant), PANMI (plants; rate 250, evaluated after 15 d) | damage to plant (100=total damage to plant; 0=no damage to plant), PANMI (plants; rate 500, evaluated after 15 d) | damage to plant (100=total damage to plant; 0=no damage to plant), SETFA (plants; rate 130, evaluated after 15 d) | damage to plant (100=total damage to plant; 0=no damage to plant), SORVU (plants; rate 130, evaluated after 15 d) | damage to plant (100=total damage to plant; 0=no damage to plant), SORVU (plants; rate 250, evaluated after 15 d) | damage to plant (100=total damage to plant; 0=no damage to plant), SORVU (plants; rate 500, evaluated after 15 d)
20: POAAN damage rating (100=total damage to plant; 0=no damage to plant) (plants; Rates 250)
10: AVEFA damage rating (100=total damage to plant; 0=no damage to plant) (plants; Rates 250) | CHEAL damage rating (100=total damage to plant; 0=no damage to plant) (plants; Rates 500) | SINAR damage rating (100=total damage to plant; 0=no damage to plant) (plants; Rates 500) | damage to plant (100=total damage to plant; 0=no damage to plant), DIGSA (plants; rate 250, evaluated after 15 d) | damage to plant (100=total damage to plant; 0=no damage to plant), ECHCG (plants; rate 500, evaluated after 15 d) | damage to plant (100=total damage to plant; 0=no damage to plant), ELEIN (plants; rate 500, evaluated after 15 d) | damage to plant (100=total damage to plant; 0=no damage to plant), EPHHL (plants; rate 250, evaluated after 15 d) | damage to plant (100=total damage to plant; 0=no damage to plant), EPHHL (plants; rate 500, evaluated after 15 d)
60: AVEFA damage rating (100=total damage to plant; 0=no damage to plant) (plants; Rates 500) | GALAP damage rating (100=total damage to plant; 0=no damage to plant) (plants; Rates 500) | LOLPE damage rating (100=total damage to plant; 0=no damage to plant) (plants; Rates 500) | damage to plant (100=total damage to plant; 0=no damage to plant), BRAPL (plants; rate 250, evaluated after 15 d) | damage to plant (100=total damage to plant; 0=no damage to plant), DIGSA (plants; rate 500, evaluated after 15 d) | damage to plant (100=total damage to plant; 0=no damage to plant), SETFA (plants; rate 250, evaluated after 15 d) | damage to plant (100=total damage to plant; 0=no damage to plant), SETFA (plants; rate 500, evaluated after 15 d)
